Assay results published in patent US20080108581A1, “Compounds and Their Use for Specific and Simultaneous Inhibition of Genes Involved In Diseases and Related Drugs” (INSTITUT NATIONAL DE LA SANTE ET DE LA RECHERCHE MEDICAL …, priority 2003, published 2008).

Columns and labels:
human topoisomerase I = target: T1, human topoisomerase I (Homo sapiens, UniProt P11387); assay: Topoisomerase I DNA cleavage test on radiolabelled duplex; assay type: biochemical; settings: in vitro, free inhibitors
T1 construct: purchased Invitrogen Inc
T1 sequence (P11387 1-765): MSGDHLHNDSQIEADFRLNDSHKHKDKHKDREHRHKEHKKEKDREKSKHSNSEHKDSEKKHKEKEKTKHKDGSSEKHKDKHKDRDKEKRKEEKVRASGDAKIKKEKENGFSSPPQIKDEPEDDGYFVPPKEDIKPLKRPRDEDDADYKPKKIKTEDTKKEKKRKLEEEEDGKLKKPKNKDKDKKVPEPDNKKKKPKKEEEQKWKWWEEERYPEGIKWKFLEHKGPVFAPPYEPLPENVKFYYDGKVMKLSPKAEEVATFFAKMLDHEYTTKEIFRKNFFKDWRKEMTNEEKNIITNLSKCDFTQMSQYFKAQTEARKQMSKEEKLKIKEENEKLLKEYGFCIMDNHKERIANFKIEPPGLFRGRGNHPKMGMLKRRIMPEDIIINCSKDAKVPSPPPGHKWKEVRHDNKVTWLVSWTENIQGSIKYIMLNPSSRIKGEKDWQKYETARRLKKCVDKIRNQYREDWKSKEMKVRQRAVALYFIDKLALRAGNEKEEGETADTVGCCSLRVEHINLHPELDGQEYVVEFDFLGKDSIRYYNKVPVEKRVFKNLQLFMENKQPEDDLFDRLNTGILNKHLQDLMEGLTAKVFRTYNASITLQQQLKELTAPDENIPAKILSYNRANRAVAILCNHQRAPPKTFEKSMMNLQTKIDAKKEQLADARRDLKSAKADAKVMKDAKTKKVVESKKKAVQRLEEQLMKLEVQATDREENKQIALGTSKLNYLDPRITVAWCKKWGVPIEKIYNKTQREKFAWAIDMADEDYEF
Description: The radiolabelled 324-bp duplex in position 3′ on the oligopyrimidine strand (well 1) was incubated with topoisomerase I in the presence of three camptothecin derivatives (wells 2-4, 10CPT, 7CPT, SCPT), or of these three derivatives conjugated with TFO 16 (wells 5-7, TFO16-L4-10CPT, TFO16-L6-CPT, TFO16-L3-SCPT). The cleavage sites are indicated by letters and the binding site of the conjugate is shown diagrammatically. L3=diaminopropynyl; L4=diaminobutyl, L6=diaminohexyl; after incubation, the protein is digested by a treatment with SDS/proteinase K and the cleavage products are analysed on a denaturating gel;
The radiolabelled duplexes (50 nM) are incubated for 1 hour at 30° C., in 50 mM. […] After ethanol precipitation, all the samples are re-suspended in 6 μl of formamide, heated to 90° C. for 4 minutes and cooled again on ice for 4 mins, before being deposited on 8% and 10% denaturing polyacrylamide gel [19/1 acrylamide:bisacrylamide], for the long and short targets respectively, containing 7.5 M urea in 1× TBE buffer (50 mM Tris-HCl, 55 mM boric acid, 1 Mm EDTA), In order to quantify the cleavage intensity, the gels are scanned with a Dynamics 445SI Phosphorimager. […]
The cleavage specificity of the conjugates was measured in vitro by a standard topoisomerase I cleavage test. […]

[1] = target: T2, DNA/topo I cleavage complexes (Homo sapiens, UniProt P11387); assay: Formation of DNA/topo I cleavage complexes in HeLa nuclei followed by immunoblot (CsCl gradient, Western slot blot); assay type: cell-based; settings: 3 h at 37° C., 5 μM (FIG. 8)
T2 construct: HeLa nucleus cells (5000000) were prepared and incubated 3 h at 37° C. with the topoisomerase I poison; endogenous in cells; host or cells: HeLa nuclei
T2 sequence (P11387 1-765): T1 sequence (P11387 1-765)
Description: FIG. 8 gives correlation results of the biological effects with the formation of DNA/topo I/CPT complexes: the formation of the complexes in the cells was followed by immunoblot.
In the experiments corresponding to FIG. 8, HeLa nucleus cells (5000000) were prepared and incubated 3 h at 37° C. with the topoisomerase I poison free (CPT or ST1578) or coupled to oligonucleotide (TFO-L4-10CPT or TFO-ST1578 or LNA-ST1578), or with a control oligonucleotide (TFO-NH2 or TFO-NPh2) at various concentration (in FIG. 8 at 5 μM). After adding of sarkosyl, the lysates were ultracentrifugated 16 h on a gradient of CsCl. 12 fractions were recovered and analysed by Western slot blot to show the fractions containing topoisomerase I (in 1-4 for the untreated control (mock)).
The fractions containing the DNA were identified by measuring absorbance at 260 nm (fractions 8-10).

Row | Compound | stimulation of DNA cleavage by topoisomerase 1 compared with 7-aminoethyl-camptothecin (human topoisomerase I) | fractions of the CsCl gradient containing topoisomerase I (stabilisation of DNA/topo I cleavage complexes) [1]
1 | CC[C@@]1(O)C(=O)OCc2c1cc1n(c2=O)Cc2cc3cc(C(=O)O)ccc3nc2-1 [10-carboxycamptothecin, 20S-10-carboxycamptothecin] | more effectively | –
2 | CC[C@@]1(O)C(=O)OCc2c1cc1n(c2=O)Cc2c-1nc1ccccc1c2C=NCCN [ST1578, 20S-7-aminoethyliminomethylcamptothecin] | – | observed only in fractions containing DNA
3 | CC[C@@]1(O)C(=O)OCc2c1cc1n(c2=O)Cc2cc3ccccc3nc2-1 [CPT, camptothecin] | – | observed only in fractions containing DNA
